Laboratory results: paper PMC4657098, “A Review of the Updated Pharmacophore for the Alpha 5 GABA(A) Benzodiazepine Receptor Model” (International Journal of Medicinal Chemistry, 2015)

Experiments:
α4β3γ2 GABAA/BzR = target: T1, α4β3γ2 GABAA/BzR (Homo sapiens, UniProt P18507+P48169); experiment: biochemical; type: binding
T1 construct: expressed in transfected cells; host or cells: LTK cells (given for XLi-093 only)

α5β3γ2 GABAA receptor = target: T2, α5β3γ2 GABAA receptor (Homo sapiens, UniProt P18507+P31644); experiment: Oocyte electrophysiology, α5β3γ2; type: cell-based
T2 construct: expressed in transfected cells; host or cells: Xenopus oocytes

[1] = system: other receptors (PDSP panel); experiment: Full PDSP panel receptor binding; conditions: NIMH PDSP, Case Western Reserve
5ht1d = target: T3, 5ht1d (Homo sapiens, UniProt P28221); experiment: PDSP receptor binding, 5ht1d; conditions: PDSP primary screen at 10 µM
T3 construct: purchased NIMH PDSP (Psychoactive Drug Screening Program, Roth lab, Case Western Reserve)

5ht2c = target: T4, 5ht2c (Homo sapiens, UniProt P28335); experiment: PDSP receptor binding, 5ht2c; conditions: PDSP primary screen at 10 µM
T4 construct: purchased NIMH PDSP (Psychoactive Drug Screening Program, Roth lab, Case Western Reserve)

5ht5a = target: T5, 5ht5a (Homo sapiens, UniProt P47898); experiment: PDSP receptor binding, 5ht5a; conditions: PDSP primary screen at 10 µM
T5 construct: purchased NIMH PDSP (Psychoactive Drug Screening Program, Roth lab, Case Western Reserve)

5ht7 = target: T6, 5ht7 (Homo sapiens, UniProt P34969); experiment: PDSP receptor binding, 5ht7; conditions: PDSP primary screen at 10 µM
T6 construct: purchased NIMH PDSP (Psychoactive Drug Screening Program, Roth lab, Case Western Reserve)

α1A = target: T7, α1A (Homo sapiens, UniProt P35348); experiment: PDSP receptor binding, α1A; conditions: PDSP primary screen at 10 µM
T7 construct: purchased NIMH PDSP (Psychoactive Drug Screening Program, Roth lab, Case Western Reserve)

α2B = target: T8, α2B (Homo sapiens, UniProt P18089); experiment: PDSP receptor binding, α2B; conditions: PDSP primary screen at 10 µM
T8 construct: purchased NIMH PDSP (Psychoactive Drug Screening Program, Roth lab, Case Western Reserve)

Beta2 = target: T9, Beta2 (Homo sapiens, UniProt P07550); experiment: PDSP receptor binding, Beta2; conditions: PDSP primary screen at 10 µM
T9 construct: purchased NIMH PDSP (Psychoactive Drug Screening Program, Roth lab, Case Western Reserve)

CB1 = target: T10, CB1 (Homo sapiens, UniProt P21554); experiment: PDSP receptor binding, CB1; conditions: PDSP primary screen at 10 µM
T10 construct: purchased NIMH PDSP (Psychoactive Drug Screening Program, Roth lab, Case Western Reserve)

D3 = target: T11, D3 (Homo sapiens, UniProt P35462); experiment: PDSP receptor binding, D3; conditions: PDSP primary screen at 10 µM
T11 construct: purchased NIMH PDSP (Psychoactive Drug Screening Program, Roth lab, Case Western Reserve)

D4 = target: T12, D4 (Homo sapiens, UniProt P21917); experiment: PDSP receptor binding, D4; conditions: PDSP primary screen at 10 µM
T12 construct: purchased NIMH PDSP (Psychoactive Drug Screening Program, Roth lab, Case Western Reserve)

DOR = target: T13, DOR (Homo sapiens, UniProt P41143); experiment: PDSP receptor binding, DOR; conditions: PDSP primary screen at 10 µM
T13 construct: purchased NIMH PDSP (Psychoactive Drug Screening Program, Roth lab, Case Western Reserve)

H1 = target: T14, H1 (Homo sapiens, UniProt P35367); experiment: PDSP receptor binding, H1; conditions: PDSP primary screen at 10 µM
T14 construct: purchased NIMH PDSP (Psychoactive Drug Screening Program, Roth lab, Case Western Reserve)

Imidaz oline = experiment: PDSP receptor binding, Imidazoline; conditions: PDSP primary screen at 10 µM
KOR = KOR (Homo sapiens, UniProt P41145); experiment: PDSP receptor binding, KOR; conditions: Case Western Reserve University, read-out: KOR Ki (secondary binding)
M3 = target: T15, M3 (Homo sapiens, UniProt P20309); experiment: PDSP receptor binding, M3; conditions: PDSP primary screen at 10 µM
T15 construct: purchased NIMH PDSP (Psychoactive Drug Screening Program, Roth lab, Case Western Reserve)

M4 = target: T16, M4 (Homo sapiens, UniProt P08173); experiment: PDSP receptor binding, M4; conditions: PDSP primary screen at 10 µM
T16 construct: purchased NIMH PDSP (Psychoactive Drug Screening Program, Roth lab, Case Western Reserve)

σ2 = experiment: PDSP receptor binding, σ2; conditions: PDSP primary screen at 10 µM
α1β3γ2 GABAA receptor = conditions: cited from earlier work
[2] = system: Bz BS of GABA(A) receptors; conditions: Supplement Table 1; cited from earlier work
α2β3γ2 GABAA/BzR = α2β3γ2 GABAA/BzR (Homo sapiens, UniProt P18507+P47869); experiment: Competition binding to HEK cell membranes, α2β3γ2; design: expressed in transfected cells; conditions: Ki α2
α3β3γ2 GABAA/BzR = α3β3γ2 GABAA/BzR (Homo sapiens, UniProt P18507+P34903); experiment: Competition binding to HEK cell membranes, α3β3γ2; design: expressed in transfected cells; conditions: Ki α3
α5β3γ2 GABAA/BzR = α5β3γ2 GABAA/BzR (Homo sapiens, UniProt P18507+P31644); experiment: Competition binding to HEK cell membranes, α5β3γ2; design: expressed in transfected cells; conditions: Ki α5

## C#Cc1ccc2c(c1)C(=O)N(C)Cc1c(C(=O)OCCCOC(=O)c3ncn4c3CN(C)C(=O)c3cc(C#C)ccc3-4)ncn1-2 [XLi-093 (4), 1,3-Bis(8-acetyleno-5,6-dihydro-5-methyl-6-oxo-4H-imidazo[1,5a][1,4]benzodiazepine-3-carboxy) propyl diester]
α4β3γ2 GABAA/BzR
  Ki: 1550 nM
α5β3γ2 GABAA receptor
  efficacy type at the α5 subtype: antagonist
[1]
  full panel receptor binding: do not bind to other receptors at levels of concern
5ht1d
  5ht1d binding: ∗ (“∗” indicates “primary missed” (<50% inhibition at 10 µM))
5ht2c
  5ht2c binding: ∗ (“∗” indicates “primary missed” (<50% inhibition at 10 µM))
5ht5a
  5ht5a binding: ∗ (“∗” indicates “primary missed” (<50% inhibition at 10 µM))
5ht7
  5ht7 binding: ∗ (“∗” indicates “primary missed” (<50% inhibition at 10 µM))
α1A
  α1A binding: ∗ (“∗” indicates “primary missed” (<50% inhibition at 10 µM))
α2B
  α2B binding: ∗ (“∗” indicates “primary missed” (<50% inhibition at 10 µM))
Beta2
  Beta2 binding: ∗ (“∗” indicates “primary missed” (<50% inhibition at 10 µM))
CB1
  CB1 binding: ∗ (“∗” indicates “primary missed” (<50% inhibition at 10 µM))
D3
  D3 binding: ∗ (“∗” indicates “primary missed” (<50% inhibition at 10 µM))
D4
  D4 binding: ∗ (“∗” indicates “primary missed” (<50% inhibition at 10 µM))
DOR
  DOR binding: ∗ (“∗” indicates “primary missed” (<50% inhibition at 10 µM))
H1
  H1 binding: ∗ (“∗” indicates “primary missed” (<50% inhibition at 10 µM))
Imidaz oline
  Imidaz oline binding: ∗ (“∗” indicates “primary missed” (<50% inhibition at 10 µM))
KOR
  Ki: 2020 nM
M3
  M3 binding: ∗ (“∗” indicates “primary missed” (<50% inhibition at 10 µM))
M4
  M4 binding: ∗ (“∗” indicates “primary missed” (<50% inhibition at 10 µM))
σ2
  σ2 binding: ∗ (“∗” indicates “primary missed” (<50% inhibition at 10 µM))
α1β3γ2 GABAA receptor; at 1 μM
  modulation of GABA induced chloride flux, α1β3γ2: did not modulate
α1β3γ2 GABAA receptor
  influence on benzodiazepine (Valium) stimulation of GABA-induced current, α1β3γ2: barely influenced
[2]
  modulation: antagonist
α2β3γ2 GABAA/BzR
  Ki: > 1000 nM
α3β3γ2 GABAA/BzR
  Ki: 858 nM
α5β3γ2 GABAA/BzR
  Ki: 15 nM
